Assay results from ChEMBL document CHEMBL2040759, “Design, synthesis and anticancer activity of nitric oxide donating/chalcone hybrids” (2012).

Tests used:
Assay type in all cases: functional
[1] = test system: MOLT-4; assay: Growth inhibition of human MOLT4 cells after 48 hrs by SRB assay; settings: MOLT-4, 48 h
[2] = test system: Malme-3M; assay: Growth inhibition of human MALME-3M cells after 48 hrs by SRB assay
[3] = test system: OVCAR-5; assay: Growth inhibition of human OVCAR5 cells assessed as cell growth at 10^-5 M after 48 hrs by SRB assay; settings: OVCAR-5, 48 h, read-out: Activity
[4] = test system: SN12C; assay: Growth inhibition of human SN12C cells assessed as cell growth at 10^-5 M after 48 hrs by SRB assay; settings: read-out: Activity
[5] = test system: OVCAR-5; assay: Growth inhibition of human OVCAR5 cells after 48 hrs by SRB assay; settings: OVCAR-5, 48 h
[6] = test system: HOP-62; assay: Growth inhibition of human HOP62 cells assessed as cell growth at 10^-5 M after 48 hrs by SRB assay; settings: HOP-62, 48 h, read-out: Activity
[7] = test system: SN12C; assay: Growth inhibition of human SN12C cells after 48 hrs by SRB assay
[8] = test system: ACHN; assay: Growth inhibition of human ACHN cells after 48 hrs by SRB assay
[9] = test system: RXF 393; assay: Growth inhibition of human RXF393 cells assessed as cell growth at 10^-5 M after 48 hrs by SRB assay; settings: RXF 393, 48 h, read-out: Activity
[10] = test system: HT-29; assay: Growth inhibition of human HT-29 cells assessed as cell growth at 10^-5 M after 48 hrs by SRB assay; settings: HT-29, 48 h, read-out: Activity
[11] = test system: NCI-H23; assay: Growth inhibition of human NCI-H23 cells assessed as cell growth at 10^-5 M after 48 hrs by SRB assay; settings: NCI-H23, 48 h, read-out: Activity
[12] = test system: SK-MEL-5; assay: Growth inhibition of human SK-MEL-5 cells assessed as cell growth at 10^-5 M after 48 hrs by SRB assay; settings: SK-MEL-5, 48 h, read-out: Activity
[13] = test system: HCC 2998; assay: Growth inhibition of human HCC2998 cells assessed as cell growth at 10^-5 M after 48 hrs by SRB assay; settings: HCC 2998, 48 h, read-out: Activity
[14] = test system: TK-10; assay: Growth inhibition of human TK10 cells after 48 hrs by SRB assay; settings: TK-10, 48 h
[15] = test system: HOP-62; assay: Growth inhibition of human HOP62 cells after 48 hrs by SRB assay; settings: HOP-62, 48 h
[16] = test system: SF-268; assay: Growth inhibition of human SF268 cells assessed as cell growth at 10^-5 M after 48 hrs by SRB assay; settings: SF-268, 48 h, read-out: Activity
[17] = test system: MDA-MB-435; assay: Growth inhibition of human MDA-MB-435 cells after 48 hrs by SRB assay; settings: MDA-MB-435, 48 h
[18] = test system: SK-MEL-2; assay: Growth inhibition of human SK-MEL-2 cells after 48 hrs by SRB assay; settings: SK-MEL-2, 48 h
[19] = test system: PC-3; assay: Growth inhibition of human PC3 cells assessed as cell growth at 10^-5 M after 48 hrs by SRB assay; settings: PC-3, 48 h, read-out: Activity
[20] = test system: SK-MEL-28; assay: Growth inhibition of human SK-MEL-28 cells assessed as cell growth at 10^-5 M after 48 hrs by SRB assay; settings: SK-MEL-28, 48 h, read-out: Activity
[21] = test system: SF-295; assay: Growth inhibition of human SF295 cells after 48 hrs by SRB assay; settings: SF-295, 48 h
[22] = test system: SNB-19; assay: Growth inhibition of human SNB19 cells assessed as cell growth at 10^-5 M after 48 hrs by SRB assay; settings: SNB-19, 48 h, read-out: Activity
[23] = test system: MDA-MB-435; assay: Growth inhibition of human MDA-MB-435 cells assessed as cell growth at 10^-5 M after 48 hrs by SRB assay; settings: MDA-MB-435, 48 h, read-out: Activity
[24] = test system: SK-OV-3; assay: Growth inhibition of human SKOV3 cells assessed as cell growth at 10^-5 M after 48 hrs by SRB assay; settings: SK-OV-3, 48 h, read-out: Activity
[25] = test system: ACHN; assay: Growth inhibition of human ACHN cells assessed as cell growth at 10^-5 M after 48 hrs by SRB assay; settings: read-out: Activity
[26] = test system: SNB-75; assay: Growth inhibition of human SNB75 cells after 48 hrs by SRB assay; settings: SNB-75, 48 h
[27] = test system: SF-295; assay: Growth inhibition of human SF295 cells assessed as cell growth at 10^-5 M after 48 hrs by SRB assay; settings: SF-295, 48 h, read-out: Activity
[28] = test system: T47D; assay: Growth inhibition of human T47D cells assessed as cell growth at 10^-5 M after 48 hrs by SRB assay; settings: read-out: Activity
[29] = test system: SK-MEL-5; assay: Growth inhibition of human SK-MEL-5 cells after 48 hrs by SRB assay; settings: SK-MEL-5, 48 h
[30] = test system: HOP-92; assay: Growth inhibition of human HOP92 cells after 48 hrs by SRB assay; settings: HOP-92, 48 h
[31] = test system: SF-268; assay: Growth inhibition of human SF268 cells after 48 hrs by SRB assay; settings: SF-268, 48 h
[32] = test system: U-251; assay: Growth inhibition of human U251 cells assessed as cell growth at 10^-5 M after 48 hrs by SRB assay; settings: U-251, 48 h, read-out: Activity
[33] = test system: KM12; assay: Growth inhibition of human KM12 cells assessed as cell growth at 10^-5 M after 48 hrs by SRB assay; settings: KM12, 48 h, read-out: Activity
[34] = test system: HCT-116; assay: Growth inhibition of human HCT116 cells after 48 hrs by SRB assay; settings: HCT-116, 48 h
[35] = test system: K562; assay: Growth inhibition of human K562 cells assessed as cell growth at 10^-5 M after 48 hrs by SRB assay; settings: K562, 48 h, read-out: Activity
[36] = read-out: LC50 (the source's name)

O=C(CO[N+](=O)[O-])Nc1ccc(C(=O)/C=C/c2ccc(Cl)cc2)cc1
GI50 [1]: 4.68 µM | TGI [1]: 69.4 µM | CC50 [1, 36]: > 100 µM | GI50 [2]: 2.13 µM | TGI [2]: 6.61 µM | CC50 [2, 36]: 76.2 µM | growth at 10 µM [3]: 67% | growth at 10 µM [4]: 46.8% | GI50 [5]: 14.8 µM | TGI [5]: 36 µM | CC50 [5, 36]: 87.8 µM | growth at 10 µM [6]: 94.1% | GI50 [7]: 3.15 µM | TGI [7]: 14.1 µM | CC50 [7, 36]: 49.6 µM | GI50 [8]: 3.3 µM | TGI [8]: 17 µM | CC50 [8, 36]: > 100 µM | growth at 10 µM [9]: 72.5% | growth at 10 µM [10]: -23.4% | growth at 10 µM [11]: 5.49% | growth at 10 µM [12]: 54.5% | growth at 10 µM [13]: -61.3% | GI50 [14]: 8.37 µM | TGI [14]: 25.1 µM | CC50 [14, 36]: 68.2 µM | GI50 [15]: 3.11 µM | TGI [15]: 9.73 µM | CC50 [15, 36]: 34.6 µM | growth at 10 µM [16]: 44.9% | GI50 [17]: 2.96 µM | TGI [17]: 11.2 µM | CC50 [17, 36]: 59 µM | GI50 [18]: 9.69 µM | TGI [18]: 23.3 µM | CC50 [18, 36]: 54.7 µM | growth at 10 µM [19]: 27.6% | growth at 10 µM [20]: 86.8% | GI50 [21]: 5.82 µM | TGI [21]: 29.2 µM | CC50 [21, 36]: > 100 µM | growth at 10 µM [22]: 87.8% | growth at 10 µM [23]: -2.76% | growth at 10 µM [24]: 89.3% | growth at 10 µM [25]: 62.3% | GI50 [26]: 3.19 µM | TGI [26]: 17.6 µM | CC50 [26, 36]: 47.6 µM | growth at 10 µM [27]: 105% | growth at 10 µM [28]: 55.5% | GI50 [29]: 4.23 µM | TGI [29]: 15.4 µM | CC50 [29, 36]: 39.8 µM | GI50 [30]: 2.95 µM | TGI [30]: 15.2 µM | CC50 [30, 36]: 53.2 µM | GI50 [31]: 2.62 µM | TGI [31]: 11.7 µM | CC50 [31, 36]: 38 µM | growth at 10 µM [32]: 14.9% | growth at 10 µM [33]: -60.6% | GI50 [34]: 0.3 µM | TGI [34]: 1.09 µM | CC50 [34, 36]: 3.55 µM

O=C(CO[N+](=O)[O-])Nc1ccc(C(=O)/C=C/c2ccc3c(c2)OCO3)cc1
growth at 10 µM [35]: 59.1% | growth at 10 µM [3]: 96.5% | growth at 10 µM [4]: 95.4% | growth at 10 µM [6]: 112% | growth at 10 µM [9]: 107% | growth at 10 µM [10]: 30.1% | growth at 10 µM [11]: 58.1% | growth at 10 µM [12]: 90.8% | growth at 10 µM [13]: 69.2% | growth at 10 µM [16]: 82.4% | growth at 10 µM [19]: 61.4% | growth at 10 µM [20]: 104% | growth at 10 µM [22]: 104% | growth at 10 µM [23]: 62.6% | growth at 10 µM [24]: 111% | growth at 10 µM [25]: 99.2% | growth at 10 µM [27]: 74.6% | growth at 10 µM [28]: 83% | growth at 10 µM [32]: 57.3% | growth at 10 µM [33]: 35.9%
